Here are results for 18 compounds from patent EP4035684A1, “AFFINITY ILLUDOFULVENE CONJUGATES” (AF Chemical LLC, priority 2019, dated 2022).

For data set [1], the system named is MV522 cell line. Kind of data set: 48 hour exposure, growth or viability by Trypan Blue Exclusion assay, target cell line. It counts as cell-based. The following applies: read-out: Mean IC50 value (nM) ± SD, N=3 unless otherwise indicated.
In data set [2] the test system is MV522 cell line. Description: cells. It is filed as cell-based.
For data set [3], the system named is 8392B cell line. Kind of data set: Two hour toxicity: inhibition of DNA synthesis activity, nontarget cell line. It counts as cell-based.
The subject of data set [4] is 8392B cell line. Description: cells. It counts as cell-based. The note with it: read-out: Mean IC50 value (nM) ± SD, N=3 unless otherwise indicated, 8392B Nontarget Cell Line, 48 hr exposure, 8392B nontarget cell line, mean ± SD, N=3 unless otherwise indicated.
Data set [5] deals with NCI 60 cell line panel. Kind of data set: NCI DTP 60 cell line screen assay. An excerpt: An ADC is engulfed by a tumor cell, transported to the endosomes (pH < 6.0) and then into the lysozomes (pH < 4). […] 4) Cancer cells can become resistant to various toxins and drugs through the development of what is termed multi-drug resistance. This process is known to occur through several different mechanisms.

The mark [6] stands for this setting: read-out: Mean IC50 value (nM) ± SD, N=3 unless otherwise indicated, MV522 Target Cell Line, 2 hr exposure, MV522 target cell line, 2 hr exposure, mean ± SD, N=3 unless otherwise indicated.
Where [7] appears, read: read-out: Mean IC50 value (nM) ± SD, N=3 unless otherwise indicated, 8392B Nontarget Cell Line, 2 hr exposure, 8392B nontarget cell line, 2 hr exposure, mean ± SD, N=3 unless otherwise indicated.

Where a SMILES comes first, the peptide text is derived from it. [ ]: non-standard residue; d: D form. The star is where a group is joined. ξ: configuration not given here. X4 = CC1=C(C*)C2=C(C)C3(CC3)[C@@](C)(O)C(=O)C2=C1; ξC = NC(CS)C(=O)O Some results are limits rather than exact numbers.

Usually IC50 stands for the concentration that gives 50% inhibition. As to `CC1=C(CSCC(N)C(=O)N[C@@H](CCCNC(=N)N)C(=O)NCC(=O)N[C@@H](CC(N)=O)C(=O)NC(CSCC2=C(C)C=C3C(=O)[C@](C)(O)C4(CC4)C(C)=C32)C(=O)O)C2=C(C)C3(CC3)[C@@](C)(O)C(=O)C2=C1` (some centres unmarked) [compound 101] (H-[ξC](X4)RGN[ξC](X4)-OH), the IC50 in data set [1] is greater than 7500 nM; in data set [2] (setting [6]), greater than 8000 nM.
Regarding `CC1=C(CO)C2=C(C)C3(CC3)[C@@](C)(O)C(=O)C2=C1` [analog 002, (6'R)-6'-hydroxy-3'-(hydroxymethyl)-2',4',6'-trimethylspiro[cyclopropane-1,5'-inden]-7'(6'H)-one], the IC50 in data set [3] (2 hour exposure, nontarget cell line, read-out: IC50 8392B) was greater than 26000 nM; in data set [2] (MV522, 2 h, read-out: IC50 MV522), 110 nM.
For `CC1=C(CCCOC(=O)c2cn(CC3=C(C)C=C4C(=O)[C@](C)(O)C5(CC5)C(C)=C43)nn2)C2=C(C)C3(CC3)[C@@](C)(O)C(=O)C2=C1` [compound 257], the IC50 in data set [1] is 320 ± 30 nM.
Regarding `CC1=C(CSc2nnnn2-c2ccc(O)cc2)C2=C(C)C3(CC3)[C@@](C)(O)C(=O)C2=C1` [compound 154], the IC50 in data set [3] (setting [7]) and in data set [2] (setting [6]) was greater than 70000 nM throughout.
As to `CC1=C(CNC(=O)NCCO)C2=C(C)C3(CC3)[C@@](C)(O)C(=O)C2=C1` [compound 279], the results for the IC50 in data set [1], in data set [3] (setting [7]) and in data set [4] were 190 ± 20 nM, greater than 90000 nM and greater than 9000 nM, respectively.
For the compound `CCCCCCCC/C=C/CCCCCCCC(=O)OCCCC1=C(C)C=C2C(=O)[C@](C)(O)C3(CC3)C(C)=C21` [compound 227], the IC50 in data set [3] (setting [7]) and in data set [2] (setting [6]) was greater than 57000 nM throughout.
For the compound `CC1=C(Cn2c(=O)[nH]cc(F)c2=O)C2=C(C)C3(CC3)[C@@](C)(O)C(=O)C2=C1` [compound 287], the IC50 in data set [3] (setting [7]) is 567000 ± 17000 nM; in data set [2] (setting [6]), 455000 ± 22000 nM.
Take `CC1=C(CNC(=O)NO)C2=C(C)C3(CC3)[C@@](C)(O)C(=O)C2=C1` [compound 277]: the IC50 was 190 ± 20 nM in data set [1], 31000 nM in data set [3] (setting [7]) and 9800 nM in data set [4].
Turning to `CC1=C2C(O)C(C)(C)C3CC23C(=O)C(C)(O)C12CC2` (centres unmarked) [compound 252], the IC50 in data set [3] (setting [7]), in data set [2] (setting [6]) and in data set [4] was greater than 380000 nM throughout.
`CC1=C(CCCOC(=O)[C@@H]2CCCN2C(=O)[C@H](CO)NC(=O)OC(C)(C)C)C2=C(C)C3(CC3)[C@@](C)(O)C(=O)C2=C1` [compound 208]: the IC50 is 930 ± 160 nM in data set [1] and 25000 nM in data set [3] (setting [7]).
Take `COC(=O)C1=C(C(=O)OC)C23C=C(C)C1C2=C(C)C1(CC1)[C@@](C)(O)C3=O` (some centres unmarked) [compound 142]: the IC50 in data set [1] was determined as 24 ± 7 nM. The “MDR Activity” value in data set [5] is given as “Yes”. Further, in data set [5] (ability to actually kill tumor cells versus only inhibiting growth), the Cytotoxicity entry is recorded as “Yes”.
In the case of `CC1=C(CNC(=O)NCCCl)C2=C(C)C3(CC3)[C@@](C)(O)C(=O)C2=C1` [compound 282], the IC50 in data set [3] (setting [7]) is greater than 85000 nM; in data set [2] (setting [6]) it was 680 ± 60 nM; in data set [4] it was greater than 8500 nM.
As to `CC1=C(CCCNC(=O)NCCO)C2=C(C)C3(CC3)[C@@](C)(O)C(=O)C2=C1` [compound 280], the values for the IC50 in data set [1], in data set [3] (setting [7]) and in data set [4] were less than 80 nM, greater than 83000 nM and greater than 2800 nM, respectively.
Consider `CC1=C(CO)C2=C(C)C3(CC3)[C@@](C)(O)C(=O)C2=C1` [compound 002], for which, in data set [2] (MV522, 2 h, read-out: Mean IC50 value (nM) ± SD, N=3 unless otherwise indicated, MV522 Target Cell Line, 2 hr exposure), the IC50 was 110 ± 40 nM. Besides, the “MDR Activity” value in data set [5] is on record as “Yes”. Moreover, the “Activity Value” in data set [5] (negative = lyses tumor cells, zero = no growth, positive = slower growth) is listed as -15.
On to `CC1=C(CSc2nc3ccccc3s2)C2=C(C)C3(CC3)[C@@](C)(O)C(=O)C2=C1` [compound 147], for which the IC50 in data set [3] (setting [7]) and in data set [2] (setting [6]) was greater than 76000 nM in each case.
For the compound `COC(=O)C1=C(C(=O)OC)C23C=C(C)C1C2=C(C)C1(CC1)[C@@](C)(O)C3O` (some centres unmarked) [compound 141], the IC50 is 3700 ± 800 nM in data set [1] and 13700 ± 1900 nM in data set [3] (setting [7]).
`CC(=O)ON(C(C)=O)c1ccc(C(=O)OC[C@]2(C)C=C3C(=O)[C@](C)(O)C4(CC4)C(C)=C3C2OC(=O)c2ccc(N(OC(C)=O)C(C)=O)cc2)cc1` (some centres unmarked) [compound 140]: the IC50 in data set [1] and in data set [4] was greater than 14000 nM throughout.
Take `CC1=C(CCCNS(=O)(=O)c2ccc(C)cc2)C2=C(C)C3(CC3)[C@@](C)(O)C(=O)C2=C1` [compound 242]: the IC50 in data set [1] amounted to 580 ± 150 nM.
